Marks after values point to notes of the source that are not given here.
Tests used:
[1] = tested on: Klenow Polmerase; assay: Primer extension on monoadducted 71-mer, Klenow polymerase; type: biochemical; conditions: 37° C., 0, 5 or 15 minutes
[2] = Solubility of photoreactive compounds in 1×TE; type: physicochemical; conditions: excess compound heated 50-70° C., stirred at room temperature, filtered; optical density
Protocol: The solubilities of AMIP, AMDMIP, DMIP, MIP and isopsoralen (IP) were determined experimentally according to the scheme set forth in FIG. 5. To perform the solubility measurement, it was first necessary to establish known optical densities for a 1 μg/ml solution of each compound. These were determined by preparing either ethanolic or aqueous stocks of each compound at known concentrations in 1×TE, then measuring the optical density of each solution. From this information, the absorption of a 1 μg/ml solution was computed. Alternatively, the extinction coefficient may be thus determined and used in the same fashion. In this manner, the following absorption data was collected:
Following this step, undissolved compound was removed by filtration using a 0.2 u nylon-66 syringe filter (Arco LC13; Gelman). The concentration of the remaining soluble compound was then determined by measuring the optical density of the filtrate and computing the solubility from the known optical density of a 1 μg/ml solution of that compound. The solubility of the compounds was thus determined to be as follows: […]

[3] = tested on: Reverse Transcriptase; assay: Primer extension on monoadducted 71-mer, reverse transcriptase; type: biochemical; conditions: 37° C., 0, 5 or 15 minutes
[4] = tested on: E. coli DNA Polymerase; assay: Primer extension on monoadducted 71-mer, E. coli DNA polymerase; type: biochemical; conditions: 37° C., 0, 5 or 15 minutes
[5] = tested on: calf thymus DNA; assay: Covalent photobinding to calf thymus DNA (Example 38); type: binding; conditions: for actual concentration obtained empirically: nominal 100 μg/ml in calf thymus DNA/1×TE, counted after sitting overnight at room temperature
Protocol: FIG. 17 can again be referred to as a flow chart schematically showing the manner in which covalent binding was measured for the compounds synthesized by the methods of the present invention. ^3H-AMIP (3.1×10^5 cpm/μg), ^3H-AMDMIP (2.2×10^5 cpm/μg), and ^3H-MIP (2.1×10^5 cpm/μg) were added to 300 μl of calf thymus DNA (Sigma) in 1×TE buffer. All of the isopsoralen compounds were added at a nominal concentration of 100 μg/ml. However, actual concentrations obtained empirically (counted after sitting overnight at room temperature) were: ^3H-AMIP (105 μg/ml), ^3H-AMDMIP (115 μg/ml), and ^3H-MIP (<10 μg/ml).
To assess binding, three samples were prepared for each compound; two were irradiated (15 minutes at 25° C. with the CE-I device) while one was unirradiated as a control. Following irradiation, the samples were extracted four times with CHCl3 then precipitated twice. The final pellet was brought up in 2 ml of 1×TE buffer and resuspended by shaking at 40° C. overnight. 50 μl of each sample was then diluted to 0.5 mls with H2O. The concentration of DNA was determined by UV absorption (A260) and the amount of covalently bound isopsoralen (“adduct”) was determined by scintillation counting (3×100 μl aliquots). From these numbers, the following binding ratios (adducts: DNA base pair) were determined: […]

[6] = tested on: T4 polymerase; assay: Primer extension on monoadducted 71-mer, T4 polymerase; type: biochemical; conditions: 37° C., 0, 5 or 15 minutes
From the text: The sequences that are presented in FIG. 26 describe several oligonucleotides that are used in the synthesis of either a normal 71-mer or the identical 71-mer containing a site-specifically placed psoralen or isopsoralen monoadduct. The 71-mer is a sub-sequence of the Human Immunodeficiency Virus (HIV) sequence. (An HIV DNA system is described in a co-pending application, Serial No. 225,725.) SK-39 is a primer oligonucleotide that is complementary to the 3′ end of the 71-mers. This primer oligonucleotide can be extended on the 71-mer template to make a complementary strand of the 71-mer.
Preparation of 71-mers which contain site-specific monoadducts involves 1) preparation of different 15-mer monoadducts from the same unmodified 15-mer (HRI-42), and 2) ligation of the different 15-mer monoadducts to the same 56-mer “extender oligonucleotide” (HRI 102) using a 25-mer oligonucleotide (HRI-45) as a splint. The arrows in FIG. 27 indicate the direction of synthesis, while the monoadduct is indicated by a short line that is perpendicular to the oligomer. While each of the 71-mer monoadducts contains the adduct at a base position that is greater than 56 bases from the 5′ end, the precise position of the monoadduct is not meant to be indicated.
To prepare the 15-mer adducts, the 15-mer was incubated with a complementary 10-mer along with psoralen or isopsoralen under hybridization conditions. The mixture was then irradiated to provide the monoadducted 15-mer. While the invention is not dependent on knowing the precise mechanism of coupling, it has generally been believed that the 10-mer directs the isopsoralen to a single TpA site within the double-stranded helix formed by the 10-mer/15-mer hybrid. […]
To provide highly purified 71-mers which contain a single monoadduct, it was necessary to provide highly purified 15-mer monoadduct prior to the ligation step. […] Separation of 15-mer monoadduct from unmodified 15-mer was readily accomplished by PAGE (while the same technique is not effective for separation of the corresponding unmodified 71-mer and monoadducted 71-mer sequences). […]

Row | Structure (SMILES) | block of primer extension by 71-mer monoadduct [1] | Solubility in 1 × TE [2] | block of primer extension by 71-mer monoadduct [3] | block of primer extension by 71-mer monoadduct [4] | actual concentration obtained empirically [5] [µg/mL] | block of primer extension by 71-mer monoadduct [6] | modification density relative to that provided by AMDMIP ([5]; photobinding at the same concentration) [%]
1 | Cc1oc2ccc3c(C)cc(=O)oc3c2c1CN [AMDMIP, 4′-Aminomethyl-4,5′-dimethylisopsoralen] | complete stop | >22,700* ug/ml | complete stop | complete stop | 115 | complete stop | 
2 | NCc1cc2occc2c2oc(=O)ccc12 [AMIP, 5-Aminomethylisopsoralen] | not complete stops | 21,000 ug/ml | complete stops | not complete stops | 105 | complete stops | 43
3 | Cc1cc2occc2c2oc(=O)ccc12 [MIP, 5-Methylisopsoralen] | not complete stops | nd (nd = not detectable (solubility was less than 1 μg/ml)) | complete stops | not complete stops | < 10 | complete stops | 

— patent publication US6680025B2, “Device and method for photoactivation” (Cerus Corporation, priority 1989, dated 2004)
